The results in this text go back to patent US20160039917A1, “Method for Treating Eclampsia and Preeclampsia” (VELO BIO, LLC, priority 2013, published 2016).

The subject of test [1] is human placental EDLF production (fetal tissues). In words: Placental explant culture (fetal side), EDLF released into media measured by Digibind RIA. Type of test: cell-based. To be noted: for EDLF in the conditioned media, earlier time points / EDLF concentration in the conditioned media: 2 μM; for EDLF in the conditioned media, earlier time points: early time point experiment; for EDLF production: fetal tissues; for EDLF accumulation in culture: time course.

The test system of test [2] is human placental EDLF production (maternal tissues). To be noted: 48 hours.
Experimental: Human placenta was dissected into fetal and maternal tissues. These were incubated in buffered culture media for 48 hours in the absence or presence of graded concentrations of ketoconazole. The culture media was collected and the amount of EDLF released from the tissue was measured using an RIA.
At the end of incubation, samples of the culture medium were collected in 15 mL conical tubes and any residual villi were removed by centrifuging at 4000 RPM for 2 min. The supernatant was stored at −80° C. as conditioned medium until later processing and assay.
After the homogenization and tissue culture processes, homogenate and conditioned media samples were collected and assayed by radioimmunoassay. Digibind (GlaxoSmithKline, Research Triangle Park, N.C., USA) was used as the primary antibody anti-EDLF/ouabain and a rabbit anti-sheep immunoglobulin (IgG) Fab fragment antibody (Jackson ImmunoResearch Laboratories, Inc., West Grove, Pa., USA) was used as the secondary antibody. […] Tritiated ouabain (30.0 Ci/mmol, Perkin Elmer, Boston, Mass., USA) was used as a tracer. Cold ouabain solutions at graded concentrations were used as standards. A 100 μL aliquot of specimen or standard ouabain solution (50 nM, 0.1 μM, 0.2 μM, 0.5 μM, 1 μM, 3 μM), plus 50 μL of a 2.22×10^-8 M tritiated ouabain solution, 300 μL of 1.8 μg/mL Digibind solution, 60 μL of 2.12×10^-7 M 2° Ab solution and 10 μL of 10 mM pH 7.4 Tris buffer were combined and mixed well, then allowed to incubate at room temperature overnight to allow antigen-antibody binding. For the assay of conditioned media, because samples contained DMEM medium, 100 μL of DMEM were added to the reaction solutions for each standard and 100 μL of deionized H2O were added to reaction solutions for specimens to bring them to the same volume. EDLF in the several conditioned media/homogenate specimens or standard cold ouabain in the calibrating solutions competed with the labeled ouabain for Digibind and then the secondary (2°) antibody was added to bind to the primary (1°) antibody-antigen complex to decrease its solubility. After the overnight incubation, 563 μL of 16% polyethylene glycol (PEG)-6000 (Calbiochem, La Jolla, Calif., USA) was added to each reaction solution to precipitate the antibody-antigen complex. After centrifugation at 13,200 rpm for 30 min, the supernatant was discarded and the pellet was resuspended in 500 μL of 0.05 M phosphate buffer (pH 7.0).
Test [3] relates to placental TNFα release. The settings on record: 48 hours. As to the method: (§1) For these studies placentas from uncomplicated pregnancies were obtained immediately after delivery and 4-5 small tissue pieces (˜5 mm×5 mm×5 mm) were cut off from the inner fetal side. The tissue pieces were dissected into tiny pieces with sterilized scissors. Any visible clots and blood vessels were removed with sterilized tweezers. The remaining villi were washed repeatedly with PBS to remove blood from the intervillous space. Villous tissue of ˜5 mg/well was then patted dry by sterilized paper tower and incubated in a 6-well cell culture plate with 5 mL of serum-free DMEM (Gibson, Grand Island, N.Y., USA) containing 100 U/mL penicillin, 100 μg/mL streptomycin and 0.25 μg/mL amphotericin B (Sigma, St. Louis, Mo., USA) per well for 48 hours at 37° C. in an incubator gassed with 95% air and 5% CO2.
(§2) Conditioned media from placental explants cultured with hydrogen peroxide or under low O2 conditions were collected and assayed by a Lipid Hydroperoxide (LPO) Assay Kit (Cayman Chemical, Ann Arbor, Mich., USA) and a human TNF-alpha Quantikine ELISA Kit (R&D Systems, Minneapolis, Minn., USA) following the manufacturers' methods to determine levels of lipid oxidation.

The subject of test [4] is placental ROS release (lipid peroxides). The settings on record: 48 hours. As to the method:
as §1, §2

Like-named read-outs stand apart in the source and are kept apart here.

Turning to `CC(=O)[C@H]1CC[C@H]2[C@@H]3CCC4=CC(=O)CC[C@]4(C)[C@H]3CC[C@]12C` [Progesterone, progesterone], the “effect on EDLF production” value in test [1] (placenta) is recorded as “little or no effect”.

As to `CC(=O)[C@H]1CC[C@H]2[C@@H]3CC=C4C[C@@H](O)CC[C@]4(C)[C@H]3CC[C@]12C` [pregnenolone], the figures for the “EDLF in the conditioned media, earlier time points” value in test [1] (3 hours) and in test [1] (6 hours) were 77.4+25.0 ×10^−8 M and 76.8+35.0 ×10^−8 M ouabain equivalents, respectively. The “EDLF concentration in the conditioned media” value in test [1] (6 hours) is given as 325.6±61.0 ×10^−8 M; in test [1] (12 hours), 136.1±27.7 ×10^−8 M; in test [1] (24 hours), 148.4±15.1 ×10^−8 M; in test [1] (36 hours), 113.6±14.4 ×10^−8 M; in test [1] (48 hours) it was 48.5±7.4 ×10^−8 M.

With TNFα, the “EDLF released into the culture media” value in test [1] (48 hours, 1.0 nM) was 2.41±0.80 ×10^−8M ouabain equivalents; in test [1] (48 hours, 2.0 nM), 2.75±0.98 ×10^−8M ouabain equivalents; in test [1] (48 hours, 5.0 nM) it was 2.76±0.80 ×10^−8M ouabain equivalents; in test [1] (48 hours, 10.0 nM), 3.51±0.69 ×10^−8M ouabain equivalents; in test [1] (48 hours, 20.0 nM), 4.47±0.99 ×10^−8M ouabain equivalents.

Take `CC(=O)N1CCN(c2ccc(OCC3COC(Cn4ccnc4)(c4ccc(Cl)cc4Cl)O3)cc2)CC1` (stereo not drawn) [ketoconazole]: the EDLF production in test [1] (48 hours, 1.0 μM) was 7.99±13.21 ×10^−8 M RIA ouabain equivalents; in test [1] (48 hours, 2.0 μM), 5.58±8.91 ×10^−8 M RIA ouabain equivalents; in test [1] (48 hours, 5.0 μM), 1.60±1.62 ×10^−8 M RIA ouabain equivalents; in test [1] (48 hours, 10.0 μM) it was 1.47±1.64 ×10^−8 M RIA ouabain equivalents; in test [1] (48 hours, 20.0 μM), 1.25±1.43 ×10^−8 M RIA ouabain equivalents; in test [2] (1.0 μM), 1.90±2.05 ×10^−8 M RIA ouabain equivalents. For the same molecule, the EDLF production in test [2] (2.0 μM) is on record as 1.79±1.96 ×10^−8 M RIA ouabain equivalents; in test [2] (5.0 μM), 1.83±2.03 ×10^−8 M RIA ouabain equivalents; in test [2] (10.0 μM) it was 1.73±1.82 ×10^−8 M RIA ouabain equivalents; in test [2] (20.0 μM), 2.46±2.60 ×10^−8 M RIA ouabain equivalents.

For `OO` [H2O2, hydrogen peroxide], the TNFα release was 18.61 ± 13.60 pg/mL in test [3] (1.0 nM), 14.95 ± 6.39 pg/mL in test [3] (5.0 nM), 15.83 ± 6.63 pg/mL in test [3] (10.0 nM) and 13.50 ± 3.43 pg/mL in test [3] (20.0 nM). Besides, the lipid peroxides in test [4] (1.0 nM) stood at 6.62 ± 3.31 µM; in test [4] (5.0 nM), 9.17 ± 3.18 µM; in test [4] (10.0 nM), 11.43 ± 3.67 µM; in test [4] (20.0 nM) it was 13.13 ± 5.04 µM. In test [1] (48 hours, 5 nM), the “released EDLF” value was 4.87±1.57 ×10^−8 M ouabain equivalents. The “EDLF levels in the media” value in test [1] (higher concentrations (10 nM, 20 nM)) is on record as “equal or slightly lower than those treated with 5 nM H2O2”.

Turning to `CC(=O)[C@@]1(O)CC[C@H]2[C@@H]3CCC4=CC(=O)CC[C@]4(C)[C@H]3CC[C@@]21C` [17P, 17α-hydroxyprogesterone], the “EDLF released into the culture media” value in test [1] (48 hours, 0.20 μM) is on record as 3.60±1.06 ×10^−8 M ouabain equivalents; in test [1] (48 hours, 0.50 μM), 3.76±0.84 ×10^−8 M ouabain equivalents; in test [1] (48 hours, 1.0 μM), 4.40±1.12 ×10^−8 M ouabain equivalents; in test [1] (48 hours, 2.0 μM), 4.91±1.52 ×10^−8 M ouabain equivalents. For the same molecule, the “EDLF accumulation in culture” value in test [1] (2.0 μM, 6 hours) is 12.60±3.81 ×10^−8 M ouabain equivalents; in test [1] (2.0 μM, 12 hours), 28.30±6.30 ×10^−8 M ouabain equivalents; in test [1] (2.0 μM, 24 hours) it was 55.39±33.62 ×10^−8 M ouabain equivalents; in test [1] (2.0 μM, 36 hours), 95.00±40.44 ×10^−8 M ouabain equivalents; in test [1] (2.0 μM, 48 hours), 132.43±74.37 ×10^−8 M ouabain equivalents.
